Test results: patent publication US20210161130A1, “COMPOSITIONS FOR ATTRACTING PESTS AND USES THEREOF” (DOMOBIOS, priority 2018, published 2021)

Columns and labels:
Type in all cases: in vivo
[1] = test system: Tyrophagus putrescentiae; test: Two-choice bioassay (filter paper rectangles), attraction of mites
Experimental: (§1) A composition comprising menthone was prepared by diluting liquid menthone with a density of 0.894 (mixture of stereoisomers L-menthone and D-isomenthone, with 98% purity, from Alfa Aesar, Haverhill, USA) in water to obtain a concentration of 0.1 μl/mL (i.e., 10^−4 L/L), corresponding to a concentration of about 0.0894 mg/mL or a concentration of about 0.00894% (w/v). Said composition has a molar concentration of menthone of about 0.58 mM.
(§2) Compositions comprising menthone at different concentrations were prepared by serial dilutions in water of the composition comprising menthone at 10^−4 L/L (from 10^−4 L/L to 10^−8 L/L, i.e., from about 0.0894 mg/mL to about 8.94 ng/mL) and their capacity to attract acarids was tested.
(§3) A composition comprising peppermint oil (also known as essential oil of Mentha piperita), which itself comprises menthone, was prepared by diluting peppermint oil with a density of 0.898 g/mL (natural peppermint oil from Mentha piperita L., Sigma, St Louis, USA) in water to obtain a concentration of 0.1 μl/mL (i.e., 10^−4 L/L), corresponding to a concentration of about 0.0898 mg/mL or a concentration of about 0.00898% (w/v). Compositions comprising peppermint oil at different concentrations were prepared by serial dilutions in water of the composition comprising peppermint oil at 10^−4 L/L (from 10^−4 L/L to 10^−6 L/L, i.e., from about 0.0898 mg/mL to about 0.898 μg/mL) and their capacity to attract acarids was tested.
The experimental protocol was inspired by the quantitative choice bioassay run by Synder et al., in 1993. Said bioassay consisted of two rectangles of filter paper of equal dimensions, positioned so as to be parallel to each other and less than 2 cm apart in a petri dish with a 6 cm diameter. 10 μL microliters of the composition comprising menthone, either alone (i.e., isolated) or within peppermint oil, were loaded on one rectangle and 10 μL of solvent (i.e., water) were loaded on the other as a control. After the solvent evaporated, a small strip of filter paper was used to bridge the rectangles. A group of 30-40 mites was then transferred to the middle of the bridge and their movements were observed. The rectangle for which they exited the bridge was recorded. Each assay comprised two sets of rectangles of filter paper connected with a bridge, with the composition comprising menthone, either alone (i.e., isolated) or within peppermint oil, loaded on opposing rectangles in each set (e.g., rectangle on the left in the first set, and rectangle on the right in the second set). Data were submitted to Fisher analysis.
(§4) Statistical significance was assessed using a Fisher's exact test.

[2] = test system: Dermatophagoides farinae; test: Two-choice bioassay (vegetable fiber support discs), attraction of mites
Experimental: as §1, §2, §3
(§5) Responses of Dermatophagoides spp. to compositions comprising menthone, either alone (i.e., isolated) or within peppermint oil, were tested in a two-choice bioassay as described in Otieno et al., 1985. Said bioassay comprised two support discs made of vegetable fiber (with a diameter of 1.7 cm), i.e., a test support and a control support, placed in a Petri dish (with a diameter of 6 cm) kept at 20-28° C. in the dark at 30% humidity. Compositions comprising menthone, either alone (i.e., isolated) or within peppermint oil, (50 μL or less) were applied via a syringe to the test support. The control support was loaded with water only. An appropriate number of mites were placed in the center of the dish, equidistant from the test support and the control support. The bioassay system was then left for 24 hr or less at 20-28° C. in the dark at 30% humidity before a count of the mites assembled on the test support and on the control support was made. Several replicates were run for each test.
as §4

[3] = test system: Dermatophagoides pteronyssinus; test: as above
Experimental: as §1, §2, §3, §5, §4

[4] = test system: Dermatophagoides farinae; test: Simulated use test, infested cushion covered with sprayed sheet; settings: menthone 10^−6 L/L, 6 sprays on sheet, 1 h, cushion infested with three mite species, N = 3
Experimental: (§6) A composition comprising menthone at a concentration of 10^−6 L/L was prepared by diluting 1 μL liquid menthone as described hereinabove (mixture of stereoisomers L-menthone and D-isomenthone, with 98% purity, from Alfa Aesar, Haverhill, USA) in 1 L of water. Hereafter, said composition is referred to as “compositions comprising menthone alone” or “compositions comprising menthone”.
(§7) A composition comprising peppermint oil at a concentration of 10^−5 L/L was prepared by diluting 10 μL peppermint oil (natural peppermint oil from Mentha piperita L., Sigma, St Louis, USA) as described hereinabove in 1 L of water. Hereafter, said composition is referred to as “composition comprising menthone within peppermint oil” or “composition comprising peppermint oil”.
(§8) In order to simulate real-life utilization of the composition for attracting pests of the invention, a common household furniture such as a cushion was infested with living mites and treated with a composition comprising menthone at a concentration of 10^−6 L/L (corresponding to a concentration of menthone of about 9×10^−4 mg/mL) or with a composition comprising peppermint oil at a concentration of 10^−5 L/L (corresponding to a concentration of peppermint oil of about 9×10^−3 mg/mL). As described in Japanese application JP2000336007 and in U.S. Pat. No. 6,415,545, the treatment consisted in laying a sheet on the infested household furniture and spraying the compositions to be tested over it. The number of attracted and unattracted mites was then counted to evaluate the efficacy of the tested composition. All the tests were run at 20-25° C. and 30-35% relative humidity, conditions normally found in households.
(§9) Brand new cushions (43×30×6 cm, Tom&Co) were infested with 400 Tyrophagus putrescentiae, 100 Dermatophagoides farinae and 100 Dermatophagoides pteronyssinus. The proportion of each species respected the average composition of natural mite populations that can be found in a pet basket: ⅔ of storage mites, ⅓ of house dust mites. Small pieces of dry dog food were spread over the cushions as a nourishment for mites. After the infestation, mites were allowed to settle down for 15 hours.
(§10) After 15 hours, a dark sheet was placed over the cushion to be treated. The size of the sheet was sufficient to cover the entire upper surface of the cushion (43×30 cm). The sheet was sprayed 6 times (total volume sprayed about 4 ml) with a composition comprising menthone, either alone (i.e., isolated) or within peppermint oil, or with water (control), keeping the bottle at a distance of about 30 cm from the sheet to be sprayed. A dry control was also used, corresponding to an untreated sheet, i.e., a sheet that was not sprayed. Sprays were evenly distributed in order to cover the totality of the sheet. The sheet was left in place for 1 h. 3 replicates were run with the composition comprising menthone, either alone (i.e., isolated) or within peppermint oil, and 3 replicates were run with the control.
(§11) In order to determine the number of mites within an infested place, the usual method is to vacuum the infested place (Wassenaar 1988). Each sheet was vacuumed for 2 minutes using a special filter (as described in the European patent application EP0630478) that retains the collected dust. The dust sample was then analyzed (see Step 4) in order to determine the number of mites attracted by the composition comprising menthone, either alone (i.e., isolated) or within peppermint oil. Similarly, after removal of the sheet, each cushion was vacuumed to determine the number of remaining mites (i.e., the number of mites that were not attracted by the composition comprising menthone, either alone (i.e., isolated) or within peppermint oil). The relative proportion of mites into the sheet and into the cushion determined the efficacy of the treatment (see Step 4). […]

[5] = test system: Dermatophagoides pteronyssinus; test: as above; settings: menthone 10^−6 L/L, 6 sprays on sheet, 1 h, cushion infested with three mite species, N = 3
Experimental: as §6, §7, §8, §9, §10, §11

[6] = test system: Total number of mites; test: as above
Experimental: as §6, §7, §8, §9, §10, §11

[7] = test system: Tyrophagus putrescentiae; test: as above; settings: menthone 10^−6 L/L, 6 sprays on sheet, 1 h, cushion infested with three mite species, N = 3
Experimental: as §6, §7, §8, §9, §10, §11

[8] = composition comprising menthone 10^−4 L/L in water vs water
[9] = composition comprising menthone 10^−5 L/L in water vs water
[10] = composition comprising menthone 10^−6 L/L in water vs water
[11] = composition comprising menthone 10^−7 L/L in water vs water
[12] = composition comprising menthone 10^−8 L/L in water vs water

CC1CCC(C(C)C)C(=O)C1 (stereo not shown) [menthone]
Mean efficiency [1, 8]: 50%
Mean efficiency [1, 9]: 47%
Mean efficiency [1, 10]: 57%
Mean efficiency [1, 11]: 53%
Mean efficiency [1, 12]: 49%
Mean efficiency [2, 8]: 41%
Mean efficiency [2, 9]: 40%
Mean efficiency [2, 10]: 62%
Mean efficiency [2, 11]: 49%
Mean efficiency [2, 12]: 51%
Mean efficiency [3, 8]: 42%
Mean efficiency [3, 9]: 50%
Mean efficiency [3, 10]: 67%
Mean efficiency [3, 11]: 42%
Efficacy (mites attracted out of the cushion) [4]: 47%
Efficacy (mites attracted out of the cushion) ([4]; listed as Menthone): 47% (±6%)
Efficacy (mites attracted out of the cushion) [5]: 44%
Efficacy (mites attracted out of the cushion) ([5]; listed as Menthone): 44%
more mites attracted out of the infested cushion compared to the control ([6]; menthone 10^−6 L/L vs water control, Fisher's exact test, p-value=0.0006): 21%
Efficacy (mites attracted out of the cushion) ([6]; menthone 10^−6 L/L, 6 sprays on sheet, 1 h, cushion infested with three mite species, N = 3): 54% (±5%)
Efficacy (mites attracted out of the cushion) [7]: 69%
Efficacy (mites attracted out of the cushion) ([7]; listed as Menthone): 69% (±8%)
